Results reported in PubChem BioAssay (NCI).
Values joined by “and” are separate entries in the source; they are usually repeats but may differ in a detail not shown here. Equal entries are not always repeated.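 Method: 48-hour compound exposure of cells in 96-well plates, five concentrations, linear interpolation of endpoints. The concentration for 50% growth inhibition is given as GI50. TGI denotes the concentration required for complete inhibition of growth.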

Columns and labels:
Assay in all cases: DTP human tumour cell line panel, 48 h
HT29 colon = test system: HT29 colon
KM12 colon = test system: KM12 colon
K-562 leukemia = test system: K-562 leukemia
SK-MEL-2 melanoma = test system: SK-MEL-2 melanoma
IGROV1 ovarian = test system: IGROV1 ovarian
RXF 393 renal = test system: RXF 393 renal
EKVX NSCLC = test system: EKVX NSCLC
CCRF-CEM leukemia = test system: CCRF-CEM leukemia
UACC-62 melanoma = test system: UACC-62 melanoma
A549 NSCLC = test system: A549 NSCLC

SMILES	GI50 (HT29 colon)	GI50 (KM12 colon)	TGI (KM12 colon)	GI50 (K-562 leukemia)	GI50 (SK-MEL-2 melanoma)	TGI (SK-MEL-2 melanoma)	GI50 (IGROV1 ovarian)	TGI (IGROV1 ovarian)	GI50 (RXF 393 renal)	TGI (RXF 393 renal)	GI50 (EKVX NSCLC)	TGI (EKVX NSCLC)	GI50 (CCRF-CEM leukemia)	TGI (CCRF-CEM leukemia)	GI50 (UACC-62 melanoma)	TGI (UACC-62 melanoma)	GI50 (A549 NSCLC)	TGI (A549 NSCLC)	TGI (HT29 colon)	TGI (K-562 leukemia)
Nc1cc(-c2cccc(OC(F)(F)F)c2)nc2ccc(N3CCCC3)cc12	35.5 nM and 33.8 nM and 35.4 nM	0.0386 µM and 0.0333 µM and 0.0372 µM	14.9 µM and > 100 µM	29.8 nM and 17.5 nM and 17.6 nM	400 nM and 88.7 nM and 787 nM	12.8 µM and > 100 µM	69.8 nM and 62.3 nM and 79.3 nM	25.3 µM and > 100 µM	0.0474 µM and 0.0376 µM and 0.0305 µM	16.4 µM and > 100 µM and > 53.5 µM	222 nM and 362 nM and 380 nM	> 100 µM	0.0381 µM and 0.0302 µM and 0.0259 µM	11.6 µM and > 52.5 µM and > 49.6 µM	0.0718 µM and 0.048 µM and 0.0603 µM	15.8 µM and > 100 µM	0.137 µM and 0.0852 µM and 0.0836 µM	18.6 µM and > 100 µM	–	–
C=CCN1C=CC(=O)[C@H](O[Si](C)(C)C(C)(C)C)[C@@H]1/C=C/c1ccccc1	5390 nM	13.1 µM	28.7 µM	9560 nM	17000 nM	34.2 µM	17100 nM	34 µM	19 µM	46.1 µM	14000 nM	40.7 µM	15.2 µM	40.1 µM	12.1 µM	26.7 µM	16.8 µM	50.3 µM	19 µM	31.3 µM
CSc1nc(NC(=O)O)c(N(C(C)=O)C(=O)O)c(=O)n1C	–	–	> 100 µM	–	–	> 100 µM	–	> 100 µM	–	> 100 µM	–	> 100 µM	–	> 100 µM	–	> 100 µM	–	> 100 µM	> 100 µM	> 100 µM
CCN=c1cc2sc3cc(NCC)c(C)cc3nc-2cc1C	2980 nM	0.654 µM	11 µM	358 nM	1820 nM	4.64 µM	2400 nM	9.21 µM	3.22 µM	18 µM	632 nM	4.53 µM	0.76 µM	17.4 µM	6.88 µM	21.8 µM	1.84 µM	10.9 µM	10.4 µM	16.3 µM
O=[N+]([O-])c1ccc(N=Nc2c(O)ccc3ccccc23)cc1	35800 nM and > 100000 nM	19.7 µM and > 100 µM	> 100 µM	–	–	> 100 µM	–	> 100 µM	38 µM and > 100 µM	> 100 µM	28000 nM and > 100000 nM	> 100 µM	28.4 µM and > 100 µM	> 100 µM	18.3 µM and > 100 µM	> 100 µM	28.2 µM and > 100 µM	> 100 µM	> 100 µM	> 100 µM
Cc1ccc(/C=C/C(=O)c2sc(-c3cccnc3)nc2C)cc1	–	–	> 100 µM	–	–	> 100 µM	–	> 100 µM	–	> 100 µM	–	> 100 µM	–	> 100 µM	–	> 100 µM	–	> 100 µM	> 100 µM	> 100 µM
O=C(Nc1cc[c]([Sb](=[O])([OH])[OH])cc1)c1ccccc1	> 100000 nM	> 100 µM	> 100 µM	> 100000 nM	> 100000 nM	> 100 µM	> 100000 nM	> 100 µM	> 100 µM	> 100 µM	> 100000 nM	> 100 µM	> 100 µM	> 100 µM	> 100 µM	> 100 µM	> 100 µM	> 100 µM	> 100 µM	> 100 µM
Cc1ccc(-c2nc(N)nc3c2nnn3Cc2cccc(CO[C@H]3CCOC3)n2)o1	> 100000 nM	> 100 µM	> 100 µM	> 100000 nM	> 100000 nM	> 100 µM	> 100000 nM	> 100 µM	> 100 µM	> 100 µM	> 100000 nM	> 100 µM	> 100 µM	> 100 µM	> 100 µM	> 100 µM	> 100 µM	> 100 µM	> 100 µM	> 100 µM
COC(=O)C12C3C4C5C3(C#N)C1C5(C(=O)OC)C42C(=O)N(C(C)C)C(C)C (stereo not given)	–	–	> 100 µM	–	–	> 100 µM	–	> 100 µM	–	> 100 µM	–	> 100 µM	–	> 67.5 µM	–	> 100 µM	–	> 100 µM	> 100 µM	> 73.8 µM
COc1cc(C(c2cc3c(cc2O)OCO3)N2CCCCC2)cc(OC)c1OC (stereo not given)	–	–	34 µM	–	–	32.9 µM	–	32.4 µM	–	27.6 µM	–	39.5 µM	–	19.2 µM	–	30.6 µM	–	45.8 µM	33.3 µM	> 21.3 µM
Cc1nc2cc(N)c(F)cc2[nH]1	–	–	> 100 µM	–	–	> 100 µM	–	> 100 µM	–	> 100 µM	–	> 100 µM	–	> 100 µM	–	> 100 µM	–	> 100 µM	> 100 µM	> 100 µM
CCn1c(O)c(C=N)c(=O)n(CC)c1=O	–	–	> 100 µM	–	–	> 100 µM	–	> 100 µM	–	> 100 µM	–	> 100 µM	–	> 100 µM	–	> 100 µM	–	> 100 µM	> 100 µM	> 100 µM
COc1ccc(-c2nc3ncccn3c2/C=C/C(=O)c2cc(OC)c(OC)c(OC)c2)cc1	2190 nM	1.61 µM	3.04 µM	2630 nM	1870 nM	4.69 µM	2200 nM	6.29 µM	1.11 µM	2.57 µM	1610 nM	6.06 µM	4.01 µM	> 100 µM	1.82 µM	3.42 µM	2.71 µM	> 100 µM	4.38 µM	> 100 µM
CC1=C2C[C@H]3[C@@H](CC=C4C[C@@H](O)CC[C@@]43C)[C@@H]2CC[C@]12O[C@@H]1C[C@H](C)CN[C@H]1[C@H]2C	26200 nM	41.3 µM and 23.4 µM	50 µM and 54.7 µM	9400 nM and 15900 nM	12300 nM and 23400 nM	38.4 µM and 51.6 µM	40500 nM and 17500 nM	50 µM and 38.9 µM	6.01 µM	27.9 µM and 12.3 µM	51900 nM	> 100 µM	22.6 µM and 23.4 µM	50 µM and 80 µM	24.6 µM and 21.1 µM	50 µM and 43.7 µM	16.8 µM and 17.5 µM	50 µM and 39.4 µM	50 µM	34.7 µM and 40.2 µM
